From patent US12564193B2, “Isoxazoline-substituted benzamide derivative, and preparation method therefor and use thereof” (SHANDONG UNITED PESTICIDE INDUSTRY CO., LTD., priority 2020, dated 2026)
Like-named read-outs stand apart in the source and are kept apart here.

Key:
Format in all cases: in vivo
[1] = system: Frankliniella occidentalis; assay: Insecticidal activity, spray on pre-infested radish plants: Frankliniella occidentalis; details: Frankliniella occidentalis, 144 h, read-out: fatality rate on Frankliniella occidentalis
Procedure, shortened: (§1)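 First, 30-40 pests are transferred onto 12-15 day old radish plants on a cut leaf, and the soil is covered with sand. The compound solution is then sprayed and left to dry for 1 hour before a mesh cover is fitted. Insect mortality is read visually after 6 days at 25° C and 70% relative humidity.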

Cnaphalocrocis medinalis = assay: Insecticidal activity, spray on pre-infested radish plants: Cnaphalocrocis medinalis; details: 144 h, read-out: fatality rate on Cnaphalocrocis medinalis
Procedure, shortened: (§2)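 Three replicate units, each a small open container holding 12-15 day old radish plants carrying 30-40 insects, receive a spray of test solution and dry for 1 hour. Kill rate is counted visually after 6 days under a black mesh at 25° C, 70% RH.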

Tetranychus cinnabarinus = assay: Acaricidal activity, slide immersion of female adult mites: Tetranychus cinnabarinus; details: read-out: fatality rate on Tetranychus cinnabarinus
Procedure, shortened: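 Female adult mites stuck dorsally on tape on slides (4 rows of 10), dipped 5 s in test solution, excess blotted, incubated 24 h. Mites with immobile feet on brush touch scored dead; fatality rate calculated.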

Spodoptera litura = assay: Insecticidal activity, spray on pre-infested radish plants: Spodoptera litura; details: 144 h, read-out: fatality rate on Spodoptera litura
Procedure, shortened: as §1

Mythimna separata = assay: Insecticidal activity, spray on pre-infested radish plants: Mythimna separata; details: Mythimna separata, 144 h, read-out: fatality rate on Mythimna separata
Procedure, shortened: as §1

Pieris rapae = assay: Insecticidal activity, spray on pre-infested radish plants: Pieris rapae; details: 144 h, read-out: fatality rate on Pieris rapae
Procedure, shortened: as §2

Plutella xylostella = assay: Insecticidal activity, spray on pre-infested radish plants: Plutella xylostella; details: Plutella xylostella, 144 h, read-out: fatality rate on Plutella xylostella
Procedure, shortened: as §1

Chilo suppressalis = assay: Insecticidal activity, spray on pre-infested radish plants: Chilo suppressalis; details: Chilo suppressalis, 144 h, read-out: fatality rate on Chilo suppressalis
Procedure, shortened: as §1

[2] = dose 1 ppm, immersion 5 seconds, checked after 24 hours
[3] = dose 10 ppm, immersion 5 seconds, checked after 24 hours
[4] = dose 25 ppm, immersion 5 seconds, checked after 24 hours

Cc1cc(C2=NOC(c3cc(Cl)c(F)c(Cl)c3)(C(F)(F)F)C2)ccc1C(=O)NCCc1ccc(Cl)nc1 (stereo not drawn) [Compound 15]
> 80%: pest or weed control at 1 ppm [1] | pest or weed control at 10 ppm [1] | pest or weed control at 25 ppm [1] | pest or weed control at 0.1 ppm (Cnaphalocrocis medinalis) | pest or weed control at 1 ppm (Cnaphalocrocis medinalis) | pest or weed control at 10 ppm (Cnaphalocrocis medinalis) | pest or weed control at 1 ppm (Tetranychus cinnabarinus; 24 h) | pest or weed control at 10 ppm (Tetranychus cinnabarinus; 24 h) | pest or weed control at 25 ppm (Tetranychus cinnabarinus; 24 h) | pest or weed control at 0.1 ppm (Spodoptera litura) | pest or weed control at 1 ppm (Spodoptera litura) | pest or weed control at 10 ppm (Spodoptera litura) | pest or weed control at 0.1 ppm (Mythimna separata) | pest or weed control at 1 ppm (Mythimna separata) | pest or weed control at 10 ppm (Mythimna separata) | pest or weed control at 0.1 ppm (Pieris rapae) | pest or weed control at 1 ppm (Pieris rapae) | pest or weed control at 10 ppm (Pieris rapae) | pest or weed control at 0.1 ppm (Plutella xylostella) | pest or weed control at 1 ppm (Plutella xylostella) | pest or weed control at 10 ppm (Plutella xylostella) | pest or weed control at 0.1 ppm (Chilo suppressalis) | pest or weed control at 1 ppm (Chilo suppressalis) | pest or weed control at 10 ppm (Chilo suppressalis)

Cc1cc(C2=NOC(c3cc(F)c(F)c(F)c3)(C(F)(F)F)C2)ccc1C(=O)NCCc1ccc(Cl)nc1 (stereo not drawn) [Compound 16]
> 80%: pest or weed control at 1 ppm ([1]; dose 1 ppm, spray, 6 days) | pest or weed control at 10 ppm ([1]; dose 10 ppm, spray, 6 days) | pest or weed control at 25 ppm ([1]; dose 25 ppm, spray, 6 days) | pest or weed control at 0.1 ppm (Cnaphalocrocis medinalis; dose 0.1 ppm, spray, 6 days) | pest or weed control at 1 ppm (Cnaphalocrocis medinalis; dose 1 ppm, spray, 6 days) | pest or weed control at 10 ppm (Cnaphalocrocis medinalis; dose 10 ppm, spray, 6 days) | pest or weed control at 1 ppm (Tetranychus cinnabarinus; [2]) | pest or weed control at 10 ppm (Tetranychus cinnabarinus; [3]) | pest or weed control at 25 ppm (Tetranychus cinnabarinus; [4]) | pest or weed control at 0.1 ppm (Spodoptera litura; dose 0.1 ppm, spray, 6 days) | pest or weed control at 1 ppm (Spodoptera litura; dose 1 ppm, spray, 6 days) | pest or weed control at 10 ppm (Spodoptera litura; dose 10 ppm, spray, 6 days) | pest or weed control at 0.1 ppm (Mythimna separata; dose 0.1 ppm, spray, 6 days) | pest or weed control at 1 ppm (Mythimna separata; dose 1 ppm, spray, 6 days) | pest or weed control at 10 ppm (Mythimna separata; dose 10 ppm, spray, 6 days) | pest or weed control at 0.1 ppm (Pieris rapae; dose 0.1 ppm, spray, 6 days) | pest or weed control at 1 ppm (Pieris rapae; dose 1 ppm, spray, 6 days) | pest or weed control at 10 ppm (Pieris rapae; dose 10 ppm, spray, 6 days) | pest or weed control at 0.1 ppm (Plutella xylostella; dose 0.1 ppm, spray, 6 days) | pest or weed control at 1 ppm (Plutella xylostella; dose 1 ppm, spray, 6 days) | pest or weed control at 10 ppm (Plutella xylostella; dose 10 ppm, spray, 6 days) | pest or weed control at 0.1 ppm (Chilo suppressalis; dose 0.1 ppm, spray, 6 days) | pest or weed control at 1 ppm (Chilo suppressalis; dose 1 ppm, spray, 6 days) | pest or weed control at 10 ppm (Chilo suppressalis; dose 10 ppm, spray, 6 days)

Cc1cc(C2=NOC(c3cc(Cl)c(F)c(Cl)c3)(C(F)(F)F)C2)ccc1C(=O)NCCc1cnccc1C(F)(F)F (stereo not drawn) [Compound 17]
> 80%: pest or weed control at 1 ppm [1] | pest or weed control at 10 ppm [1] | pest or weed control at 25 ppm [1] | pest or weed control at 0.1 ppm (Cnaphalocrocis medinalis) | pest or weed control at 1 ppm (Cnaphalocrocis medinalis) | pest or weed control at 10 ppm (Cnaphalocrocis medinalis) | pest or weed control at 1 ppm (Tetranychus cinnabarinus; 24 h) | pest or weed control at 10 ppm (Tetranychus cinnabarinus; 24 h) | pest or weed control at 25 ppm (Tetranychus cinnabarinus; 24 h) | pest or weed control at 0.1 ppm (Spodoptera litura) | pest or weed control at 1 ppm (Spodoptera litura) | pest or weed control at 10 ppm (Spodoptera litura) | pest or weed control at 0.1 ppm (Mythimna separata) | pest or weed control at 1 ppm (Mythimna separata) | pest or weed control at 10 ppm (Mythimna separata) | pest or weed control at 0.1 ppm (Pieris rapae) | pest or weed control at 1 ppm (Pieris rapae) | pest or weed control at 10 ppm (Pieris rapae) | pest or weed control at 0.1 ppm (Plutella xylostella) | pest or weed control at 1 ppm (Plutella xylostella) | pest or weed control at 10 ppm (Plutella xylostella) | pest or weed control at 0.1 ppm (Chilo suppressalis) | pest or weed control at 1 ppm (Chilo suppressalis) | pest or weed control at 10 ppm (Chilo suppressalis)

Cc1cc(C2=NOC(c3cc(F)c(F)c(F)c3)(C(F)(F)F)C2)ccc1C(=O)NCCc1cnccc1C(F)(F)F (stereo not drawn) [Compound 18]
> 80%: pest or weed control at 1 ppm ([1]; dose 1 ppm, spray, 6 days) | pest or weed control at 10 ppm ([1]; dose 10 ppm, spray, 6 days) | pest or weed control at 25 ppm ([1]; dose 25 ppm, spray, 6 days) | pest or weed control at 0.1 ppm (Cnaphalocrocis medinalis; dose 0.1 ppm, spray, 6 days) | pest or weed control at 1 ppm (Cnaphalocrocis medinalis; dose 1 ppm, spray, 6 days) | pest or weed control at 10 ppm (Cnaphalocrocis medinalis; dose 10 ppm, spray, 6 days) | pest or weed control at 1 ppm (Tetranychus cinnabarinus; [2]) | pest or weed control at 10 ppm (Tetranychus cinnabarinus; [3]) | pest or weed control at 25 ppm (Tetranychus cinnabarinus; [4]) | pest or weed control at 0.1 ppm (Spodoptera litura; dose 0.1 ppm, spray, 6 days) | pest or weed control at 1 ppm (Spodoptera litura; dose 1 ppm, spray, 6 days) | pest or weed control at 10 ppm (Spodoptera litura; dose 10 ppm, spray, 6 days) | pest or weed control at 0.1 ppm (Mythimna separata; dose 0.1 ppm, spray, 6 days) | pest or weed control at 1 ppm (Mythimna separata; dose 1 ppm, spray, 6 days) | pest or weed control at 10 ppm (Mythimna separata; dose 10 ppm, spray, 6 days) | pest or weed control at 0.1 ppm (Pieris rapae; dose 0.1 ppm, spray, 6 days) | pest or weed control at 1 ppm (Pieris rapae; dose 1 ppm, spray, 6 days) | pest or weed control at 10 ppm (Pieris rapae; dose 10 ppm, spray, 6 days) | pest or weed control at 0.1 ppm (Plutella xylostella; dose 0.1 ppm, spray, 6 days) | pest or weed control at 1 ppm (Plutella xylostella; dose 1 ppm, spray, 6 days) | pest or weed control at 10 ppm (Plutella xylostella; dose 10 ppm, spray, 6 days) | pest or weed control at 0.1 ppm (Chilo suppressalis; dose 0.1 ppm, spray, 6 days) | pest or weed control at 1 ppm (Chilo suppressalis; dose 1 ppm, spray, 6 days) | pest or weed control at 10 ppm (Chilo suppressalis; dose 10 ppm, spray, 6 days)

Cc1cc(C2=NOC(c3cc(Cl)c(F)c(Cl)c3)(C(F)(F)F)C2)ccc1C(=O)NCCc1ncc(C(F)(F)F)cc1Cl (stereo not drawn) [Compound 19]
> 80%: pest or weed control at 1 ppm [1] | pest or weed control at 10 ppm [1] | pest or weed control at 25 ppm [1] | pest or weed control at 0.1 ppm (Cnaphalocrocis medinalis) | pest or weed control at 1 ppm (Cnaphalocrocis medinalis) | pest or weed control at 10 ppm (Cnaphalocrocis medinalis) | pest or weed control at 1 ppm (Tetranychus cinnabarinus; 24 h) | pest or weed control at 10 ppm (Tetranychus cinnabarinus; 24 h) | pest or weed control at 25 ppm (Tetranychus cinnabarinus; 24 h) | pest or weed control at 0.1 ppm (Spodoptera litura) | pest or weed control at 1 ppm (Spodoptera litura) | pest or weed control at 10 ppm (Spodoptera litura) | pest or weed control at 0.1 ppm (Mythimna separata) | pest or weed control at 1 ppm (Mythimna separata) | pest or weed control at 10 ppm (Mythimna separata) | pest or weed control at 0.1 ppm (Pieris rapae) | pest or weed control at 1 ppm (Pieris rapae) | pest or weed control at 10 ppm (Pieris rapae) | pest or weed control at 0.1 ppm (Plutella xylostella) | pest or weed control at 1 ppm (Plutella xylostella) | pest or weed control at 10 ppm (Plutella xylostella) | pest or weed control at 0.1 ppm (Chilo suppressalis) | pest or weed control at 1 ppm (Chilo suppressalis) | pest or weed control at 10 ppm (Chilo suppressalis)

Cc1cc(C2=NOC(c3cc(F)c(F)c(F)c3)(C(F)(F)F)C2)ccc1C(=O)NCCc1ncc(C(F)(F)F)cc1Cl (stereo not drawn) [Compound 20]
> 80%: pest or weed control at 1 ppm ([1]; dose 1 ppm, spray, 6 days) | pest or weed control at 10 ppm ([1]; dose 10 ppm, spray, 6 days) | pest or weed control at 25 ppm ([1]; dose 25 ppm, spray, 6 days) | pest or weed control at 0.1 ppm (Cnaphalocrocis medinalis; dose 0.1 ppm, spray, 6 days) | pest or weed control at 1 ppm (Cnaphalocrocis medinalis; dose 1 ppm, spray, 6 days) | pest or weed control at 10 ppm (Cnaphalocrocis medinalis; dose 10 ppm, spray, 6 days) | pest or weed control at 1 ppm (Tetranychus cinnabarinus; [2]) | pest or weed control at 10 ppm (Tetranychus cinnabarinus; [3]) | pest or weed control at 25 ppm (Tetranychus cinnabarinus; [4]) | pest or weed control at 0.1 ppm (Spodoptera litura; dose 0.1 ppm, spray, 6 days) | pest or weed control at 1 ppm (Spodoptera litura; dose 1 ppm, spray, 6 days) | pest or weed control at 10 ppm (Spodoptera litura; dose 10 ppm, spray, 6 days) | pest or weed control at 0.1 ppm (Mythimna separata; dose 0.1 ppm, spray, 6 days) | pest or weed control at 1 ppm (Mythimna separata; dose 1 ppm, spray, 6 days) | pest or weed control at 10 ppm (Mythimna separata; dose 10 ppm, spray, 6 days) | pest or weed control at 0.1 ppm (Pieris rapae; dose 0.1 ppm, spray, 6 days) | pest or weed control at 1 ppm (Pieris rapae; dose 1 ppm, spray, 6 days) | pest or weed control at 10 ppm (Pieris rapae; dose 10 ppm, spray, 6 days) | pest or weed control at 0.1 ppm (Plutella xylostella; dose 0.1 ppm, spray, 6 days) | pest or weed control at 1 ppm (Plutella xylostella; dose 1 ppm, spray, 6 days) | pest or weed control at 10 ppm (Plutella xylostella; dose 10 ppm, spray, 6 days) | pest or weed control at 0.1 ppm (Chilo suppressalis; dose 0.1 ppm, spray, 6 days) | pest or weed control at 1 ppm (Chilo suppressalis; dose 1 ppm, spray, 6 days) | pest or weed control at 10 ppm (Chilo suppressalis; dose 10 ppm, spray, 6 days)
